Test results: article PMC3834219 (Plant molecular biology, 2013)

Molecular target: T1, GmPP2C1 (Glycine max, UniProt K7LYY2)
T1 sequence (K7LYY2 1-536): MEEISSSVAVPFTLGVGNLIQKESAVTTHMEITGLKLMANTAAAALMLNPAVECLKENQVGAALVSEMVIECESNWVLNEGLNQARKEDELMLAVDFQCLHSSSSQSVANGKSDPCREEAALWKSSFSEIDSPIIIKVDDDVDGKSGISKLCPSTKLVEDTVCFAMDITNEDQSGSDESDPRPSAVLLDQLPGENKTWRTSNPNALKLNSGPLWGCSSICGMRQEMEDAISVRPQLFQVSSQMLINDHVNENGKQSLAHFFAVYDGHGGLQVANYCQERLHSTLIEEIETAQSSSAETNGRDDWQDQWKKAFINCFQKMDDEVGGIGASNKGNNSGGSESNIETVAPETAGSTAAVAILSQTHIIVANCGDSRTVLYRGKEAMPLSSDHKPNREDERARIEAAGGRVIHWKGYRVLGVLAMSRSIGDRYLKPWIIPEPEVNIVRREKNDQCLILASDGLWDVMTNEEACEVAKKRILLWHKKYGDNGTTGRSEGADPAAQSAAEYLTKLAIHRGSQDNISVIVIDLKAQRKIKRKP
Test: pNPP hydrolysis at […] nm
Type: biochemical
Settings: 1 μM His-GmPP2C1, 50 mM pNPP, pH 7.5, 25 mM Mg(OAc)2, 2 mM MnCl2

O=[N+]([O-])c1ccc(OP(=O)(O)O)cc1 [p-nitrophenyl phosphate]
pNPP hydrolysis at 405 nm: GmPP2C1 phosphatase activity was measured using the colorimetric substrate p-nitrophenyl phosphate (pNPP, Sigma)
